From patent US20170204380A1, “GLYCOSYL TRANSFERASES AND THEIR USES” (TECHNISCHE UNIVERSITAT MUNCHEN, priority 2014, published 2017) come the findings set out here.

In test [1] the target is T1, VvGT16 (Vitis vinifera, UniProt F6HTJ4). On the procedure: The measurements were performed under the following conditions. […] Radioactivity was determined by LSC.
Test [2] concerns the target T2, VvGT14a (Vitis vinifera, UniProt F6H0R6). The test is described as follows: Substrate screening, radiochemical analysis with UDP-[14C]glucose. The class given is biochemical. On the procedure:
(§1) In the initial screening, each reaction mixture (200 μL in total) contained Tris-HCl buffer (100 mM, pH 8, 10 mM 2-mercaptoethanol), 37 pmol UDP-[^14C]glucose (0.01 μCi, Biotrend, Köln, Germany), substrate (50 μL of a 1 mg/mL stock solution) and purified protein (0.5-0.8 μg/μL). […] The organic phase was mixed with 2 mL Pro Flow P+ cocktail (Meridian Biotechnologies Ltd., Epsom, UK) and radioactivity was determined by liquid scintillation counting (LSC, Tri-Carb 2800TR, Perkin Elmer, Waltham Mass., USA). Additionally, negative controls without substrate were performed.
(§2) The recombinant proteins were expressed with an N-terminal GST-tag, affinity purified and verified by SDS-PAGE and Western Blot using GST-specific antibody.

The target of test [3] is T3, VvGT15a (Vitis vinifera, UniProt A0ABY9C1E0). Described as above. The class given is biochemical. On the procedure: as §1, §2
T3 sequence (A0ABY9C1E0 entry or part of it): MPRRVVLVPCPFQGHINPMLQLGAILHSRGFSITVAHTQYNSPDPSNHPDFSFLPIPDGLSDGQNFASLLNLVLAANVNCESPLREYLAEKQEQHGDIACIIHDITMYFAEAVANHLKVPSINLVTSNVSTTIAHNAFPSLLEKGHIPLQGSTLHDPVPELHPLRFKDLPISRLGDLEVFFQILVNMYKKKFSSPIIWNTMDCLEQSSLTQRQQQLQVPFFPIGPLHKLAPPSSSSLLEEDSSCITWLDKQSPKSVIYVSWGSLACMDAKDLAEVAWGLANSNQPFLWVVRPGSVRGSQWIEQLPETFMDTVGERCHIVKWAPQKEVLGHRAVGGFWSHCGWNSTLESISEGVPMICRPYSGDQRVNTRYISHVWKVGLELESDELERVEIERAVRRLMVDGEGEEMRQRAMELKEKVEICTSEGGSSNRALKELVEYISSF
A further test has as its target VvGT15b (Vitis vinifera, UniProt A0ABY9C1E0). The description is as above. Type of test: biochemical. On the procedure:
as §1, §2

The target in another test is VvGT15c (Vitis vinifera, UniProt A0ABY9C1E0). The test is described as above. Type of test: biochemical. As to the method:
as §1, §2

In test [4] the target is T1, VvGT16. Described as above. Type of test: biochemical. As to the method: as §1, §2
For test [5], the target named is T2, VvGT14a. The test is described as follows: Enantioselectivity by chiral phase SPME-GC-MS after hydrolysis of the formed glucoside. As to conditions: racemic substrate, prolonged incubation (24 h). The class given is biochemical. As to the method: (§3) To determine the enantioselectivity of VvGT14 and VvGT15 the enantiomeric ratio of glucosidically bound citronellol and linalool was determined by enantioselective GC-MS. Following the incubation, residual citronellol and linalool were completely removed by extraction with dichloromethane. Chronellyl β-D-glucoside which remained in the aqueous phase was hydrolyzed by HCl (2 mL, 0.1 M, pH 1) for one hour at 100° C. to release citronellol (Skouroumounis and Sefton, 2000). In case of linalyl β-D-glucoside an enzymatic hydrolysis (AR 2000, citric acid buffer pH 4, 24 h) was applied due to the instability of linalool in acid solutions (Williams et al., 1982). […] After hydrolysis, citronellol and linalool were analyzed by SPME-GC-MS as described above.
(§4) GC-MS analysis was performed with a Varian GC-450 coupled to a Varian MS-240 ion-trap employing a Phenomenex Zebron ZB-WAXplus column (30 m×0.25 mm×0.25 μm, Aschaffenburg, Germany). Helium flow rate was 1 mL/min. The analysis was carried out in split mode (liquid injections) or splitless mode (SPME measurements) with 220° C. injector temperature. EI (electron impact ionization)-MS spectra were recorded from m/z 40 to 300 (ionization energy 70 eV; trap temperature 170° C.). The oven temperature program was 60° C. (3 min), 10° C./min up to 250° C. (5 min). In case of SPME measurements, liberated aglycones were isolated for 10 min at 60° C. using a fiber coated with a 85 μm film of polyacrylate (SUPELCO, Bellefonte, USA). After extraction the SPME fiber was desorbed for 10 min at 250° C. in the injection port of the GC-MS system and the column oven program was carried out as described above. Enantioselective GC-MS analysis was performed with a Varian GC-450 coupled to a Varian MS-240 ion-trap. The column was a DiAcB (heptakis-(2,3-di-O-acetyl-6-O-tert.-butyldimethylsilyl)-B-cyclodextrin), 26 m×0.32 mm i.d. with a 0.1 μm film. […] GC-MS measurements were recorded in full scan mode. Selected ion monitoring (SIM) mode was used for quantification.

For test [6], the target named is T3, VvGT15a. The description is as above. Type of test: biochemical. The conditions noted are these: racemic substrate, prolonged incubation (24 h). On the procedure:
as §3, §4

The target in test [7] is T2, VvGT14a. As to conditions: VvGT14a versus UGT85B1.
[8] abbreviates: UDP-glucose fixed 512.5 μM (for UDP-glucose: geraniol fixed 1.25 mM), Tris-HCl pH 8.5, 30° C.

T1 sequence (F6HTJ4 entry or part of it): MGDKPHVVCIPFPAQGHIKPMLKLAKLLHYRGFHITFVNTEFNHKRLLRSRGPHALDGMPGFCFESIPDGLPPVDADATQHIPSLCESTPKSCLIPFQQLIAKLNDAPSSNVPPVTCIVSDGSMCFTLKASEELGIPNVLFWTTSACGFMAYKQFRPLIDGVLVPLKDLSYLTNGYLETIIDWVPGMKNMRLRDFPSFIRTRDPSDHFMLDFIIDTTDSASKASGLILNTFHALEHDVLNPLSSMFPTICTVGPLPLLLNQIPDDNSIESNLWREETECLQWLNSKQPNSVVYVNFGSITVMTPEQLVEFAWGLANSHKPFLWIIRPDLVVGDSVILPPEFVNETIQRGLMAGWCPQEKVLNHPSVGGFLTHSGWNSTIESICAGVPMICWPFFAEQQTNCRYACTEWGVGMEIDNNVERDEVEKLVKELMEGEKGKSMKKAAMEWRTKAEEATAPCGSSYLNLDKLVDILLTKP
T2 sequence (F6H0R6 entry or part of it): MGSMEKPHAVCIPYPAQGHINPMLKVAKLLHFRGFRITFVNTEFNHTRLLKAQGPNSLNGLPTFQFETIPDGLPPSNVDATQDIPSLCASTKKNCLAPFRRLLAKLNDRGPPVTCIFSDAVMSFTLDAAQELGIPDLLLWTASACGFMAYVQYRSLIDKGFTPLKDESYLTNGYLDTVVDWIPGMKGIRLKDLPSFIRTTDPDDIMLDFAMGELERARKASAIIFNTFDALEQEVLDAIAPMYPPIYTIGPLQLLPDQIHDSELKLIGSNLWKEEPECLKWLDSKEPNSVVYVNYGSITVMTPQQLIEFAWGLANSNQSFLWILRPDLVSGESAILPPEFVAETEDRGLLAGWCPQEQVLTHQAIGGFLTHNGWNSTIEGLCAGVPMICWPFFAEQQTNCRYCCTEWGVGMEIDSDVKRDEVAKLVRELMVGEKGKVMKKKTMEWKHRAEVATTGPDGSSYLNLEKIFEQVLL
Sequence of VvGT15c (A0ABY9C1E0 entry or part of it): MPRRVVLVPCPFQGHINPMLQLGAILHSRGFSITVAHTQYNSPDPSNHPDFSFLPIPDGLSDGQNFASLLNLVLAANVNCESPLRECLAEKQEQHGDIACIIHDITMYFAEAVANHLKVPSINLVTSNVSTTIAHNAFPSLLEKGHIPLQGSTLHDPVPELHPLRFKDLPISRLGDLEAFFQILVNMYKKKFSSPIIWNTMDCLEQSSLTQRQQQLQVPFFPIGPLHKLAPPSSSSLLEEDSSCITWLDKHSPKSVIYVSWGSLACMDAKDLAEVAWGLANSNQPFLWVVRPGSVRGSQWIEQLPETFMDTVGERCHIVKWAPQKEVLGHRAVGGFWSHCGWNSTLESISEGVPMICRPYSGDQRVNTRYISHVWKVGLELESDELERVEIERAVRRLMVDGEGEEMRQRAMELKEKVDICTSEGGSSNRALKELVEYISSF

On to `CC(C)=CCCC(C)CCO` (racemic) [citronellol (rac), (R,S)-3,7-dimethyl-6-octen-1-ol], for which, at VvGT16 [1] (setting [8]), the Km stood at 108 ± 2.5 µM. Besides, at VvGT16 [1] (setting [8]), the kcat came to 0.008 s⁻¹. Besides, on VvGT16 [1] (radiochemical assays), the “transformation of R- and S-citronellol (in words)” value is on record as “same efficiency”. The “conversion as substrate (in words)” value on VvGT14a [2] is given as “preferred”; at VvGT15a [3], “glucosylated primarily”; at VvGT15b, “glucosylated primarily”; at VvGT15c, “glucosylated primarily”; at VvGT16 [4] it was “transformed”. The “enantiomeric preference, aglycone liberated from the formed glucoside” value at VvGT14a [5] and at VvGT15a [6] was “no enantio-discrimination” in each case. On VvGT14a [7], the “kcat/KM of VvGT14a higher than the value for UGT85B1 from Sorghum bicolor” value turned out to be 4 fold.
In the case of `C=CC(C)(O)CCC=C(C)C` (racemic) [linalool (rac), (R,S)-3,7-dimethyl-1,6-octadien-3-ol], the “conversion as substrate (in words)” value at VvGT14a [2] is on record as “catalytic activity”. Also, the “enantiomeric preference, aglycone liberated from the formed glucoside” value at VvGT14a [5] is on record as “slight enrichment of the R-enantiomer”.
